Patent US9505735B2, “Compounds for treating infectious diseases” (Whitehead Institute for Biomedical Research, priority 2012, dated 2016)

Columns and labels:
[1] = tested on: S. cerevisiae strain Sigma 1278B; test: Filamentation on solid media; type: cell-based; conditions: 5 μM, 6 days
Description: For liquid assays, C. albicans strains were grown overnight in YPD with DMSO or 5 μM gepinacin. After dilution to an OD600 of 0.1 in Spider media, growth was continued for an additional 3 hours with agitation at 37° C. in the presence of compound before transfer to a 24 well plate for imaging (Shen, et al. (2008) Proc Natl Acad Sci USA 105, 20918-20923). Assays with S. cerevisiae strain Sigma 1278B on solid media were performed as previously described (Liu, et al. (1994) Science 266, 1723-1726) except gepinacin was added directly to partially cooled plate media and colonies were imaged after growth for 6 or 9 days at 30° C.

NIH 3T3 cells = test: Co-culture of mammalian cells and C. albicans: mammalian cells; type: cell-based; conditions: 40 μM, 24 hours
Description: For co-culture experiments, confluent layers of NIH 3T3 cells were established in 6-well plates. The following day, the medium was replaced with RPMI1640+10% FBS containing the amphotericin-resistant strain CaAmphR at […] colony forming units per ml and 40 μM gepinacin or an equivalent amount of DMSO. Co-cultures were incubated for 24 hours at 37° C. in a micro-isolator box. Images were acquired on a Nikon Eclipse TS100 microscope at 40×.
Having determined the target of gepinacin in fungi, gepinacin's effect on the human ortholog of Gwt1, PIG-W, was examined. To determine if gepinacin remained active under mammalian cell culture conditions cultured fungi were cultured (either an amphotericin B-resistant (FIG. 3a) or fluconazole-resistant (data not shown) isolate of C. albicans) and mammalian cells together with 40 μM gepinacin. […] PIG-W (and GPI anchor biosynthesis) is not essential for mammalian cells in culture.

Candida albicans = test: Antifungal susceptibility testing, wild type and drug-resistant strains; type: cell-based
Description: Anti-fungal susceptibility testing of a fluconazole-resistant C. albicans strain under standard conditions. Yeast were incubated at 30° C. for 24 hours with serial dilutions of the indicated compounds. Growth was monitored by OD600 and is expressed as fraction of the growth observed in the absence of compound.
Archives of all strains were maintained in 25% glycerol at −80° C. Standard S. cerevisiae lab strains W303, BY4741, BY4742 and BY4743 were used for experiments. The C. albicans wild type strain in FIG. 1 was CaI4, a standard laboratory strain (Fonzi, et al. (1993) Genetics 134, 717-728). […]
Sensitivity to gepinacin was determined in 96-well, flat bottom microtiter plates using a modification of the NCCLS broth microdilution protocol CLS M27-A3 and RPMI as culture medium. Fungi were inoculated at ˜10^3 cells per ml and incubated for 48 hours at 37° C. after which plates were sealed, shaken and the optical density read at 600 nm (OD600) on a Tecan Safire 2 plate reader. […] Results are expressed as fraction of growth in the absence of compound and the mean and standard deviation are plotted. […] Plates were then visually scored as specified by CLSI document M38-A2 to determine the MIC50 and MIC80.

PIG-W = biological target: T1, PIG-W (Homo sapiens, UniProt Q7Z7B1); test: In vitro acylation assay with membranes of the PIG-W strain; type: biochemical; conditions: membranes of low copy plasmid strain
T1 construct: expressed in transfected cells; host or cells: S. cerevisiae BY4741-derived gwt1 deletion shuttle strain carrying a pAG415GPD-based PIG-W plasmid
T1 sequence (Q7Z7B1 1-504): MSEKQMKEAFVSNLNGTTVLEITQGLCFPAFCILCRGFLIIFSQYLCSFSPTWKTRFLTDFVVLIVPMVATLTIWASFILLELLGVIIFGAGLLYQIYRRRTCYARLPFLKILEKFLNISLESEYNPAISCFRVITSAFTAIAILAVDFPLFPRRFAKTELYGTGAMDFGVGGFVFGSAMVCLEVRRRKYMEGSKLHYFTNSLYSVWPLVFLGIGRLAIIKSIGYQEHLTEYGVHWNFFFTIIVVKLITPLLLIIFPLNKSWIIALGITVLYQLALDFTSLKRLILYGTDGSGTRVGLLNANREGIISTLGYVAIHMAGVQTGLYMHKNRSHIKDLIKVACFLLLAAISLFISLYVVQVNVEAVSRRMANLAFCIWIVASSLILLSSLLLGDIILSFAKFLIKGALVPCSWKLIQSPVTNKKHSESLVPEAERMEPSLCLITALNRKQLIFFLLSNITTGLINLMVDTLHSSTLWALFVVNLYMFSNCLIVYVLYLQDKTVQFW
Description: Photographs were taken after 24 hours. DMSO-treated cultures have large, dense colonies of C. albicans which are not present in gepinacin-treated cultures. (B) Anti-fungal susceptibility testing of S. cerevisiae strains in which the endogenous GWT1 gene had been replaced by plasmid-driven expression of the human gene (PIG-W), or the fungal gene (GWT1). CEN plasmids are low copy, […] plasmids are high copy.
Experiments were performed using a previously published protocol (Umemara, et al. (2003) J Biol Chem 278, 23639-23647) with the following modifications; UDP[^3H]GlcNAc was used instead of [^14C] and TLC plates were imaged by autoradiography. Lipid extracts were treated overnight with phosphatidylinositol-specific phospholipase C to confirm that the band identified as GlcN-(acyl)PI was resistant to cleavage (data not shown).

For `COc1ccc(NC(=O)COc2cccc(OCC(C)C)c2)cc1` [gepinacin], the “filamentation on solid media” value [1] was “blocked filamentation”, the “effect on mammalian cells in co-culture” value (NIH 3T3 cells) was “no effect” and the growth inhibition (Candida albicans) was “inhibited the growth”. The “growth inhibition of isolates resistant to the three major classes of antifungals” value (Candida albicans; fluconazole-, amphotericin B-, caspofungin-resistant strains) was “inhibited the growth of multiple isolates” and the “activity of the human enzyme (GlcN-(acyl)PI formation)” value (PIG-W) was “not inhibited”.
